Data published in patent publication US20110039721A1, “METHOD FOR PREDICTION ABOUT CARCINOGENICITY OF SUBSTANCE IN RODENT” (Chemicals Evaluation and Research Institute, priority 2007, published 2011).

Tests used:
[1] = system: rodent; conditions: in vivo; cited from earlier work
[2] = system: mRNA expressed from the genes (A) to (D) in rat liver; assay: Behavior of genes (mRNA expression level, oligo-DNA microarray) in rat liver after 28-day oral administration; assay type: in vivo; conditions: rat liver, oral once daily 28 days
Procedure, shortened: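 Liver mRNA measured by oligo-DNA microarray after 28 days of once-daily oral gavage in 5-week-old male F344 rats (n=4 per group), with vehicle controls given equal solvent volume. Significance threshold: 1.5-fold up or down versus control, with changes opposite in direction to other carcinogens counted as not significant.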

[3] = system: liver; conditions: in vivo; cited from earlier work
[4] = (C), Unigene Rn.120914, defined direction +

In the case of CCN(CC)N=O [TS011, Diethylnitrosamine], the Carcinogenicity [1] is given as “C+”, the “Behavior of gene caused by administration of chemical substance, Gene No. 4846” value ([2]; (A), Unigene Rn.144554, defined direction +) is given as “+” and the “Behavior of gene caused by administration of chemical substance, Gene No. 4218” value ([2]; (A), Unigene Rn.167075, defined direction +, significant = 1.5 times or more or 1/1.5 or less of control) is given as “+”. For the same compound, the “Behavior of gene caused by administration of chemical substance, Gene No. 2026” value ([2]; (A), Unigene Rn.167075, defined direction −) was “+”, the “Behavior of gene caused by administration of chemical substance, Gene No. 6182” value ([2]; (A), Unigene Rn.5834, defined direction +) was “+” and the “Behavior of gene caused by administration of chemical substance, Gene No. 5600” value ([2]; (A), Unigene Rn.9836, defined direction +) was “+”. For the same compound, the “Behavior of gene caused by administration of chemical substance, Gene No. 1494” value ([2]; (B), Unigene Rn.1430, defined direction −) was “+”, the “Behavior of gene caused by administration of chemical substance, Gene No. 2045” value ([2]; (B), Unigene Rn.19329, defined direction +) was “−” and the “Behavior of gene caused by administration of chemical substance, Gene No. 2203” value ([2]; (B), Unigene Rn.21240, defined direction +) was “−”. The “Behavior of gene caused by administration of chemical substance, Gene No. 533” value ([2]; (C), Unigene Rn.106184, defined direction +) was “+”, the “Behavior of gene caused by administration of chemical substance, Gene No. 725” value ([2]; (C), Unigene Rn.108075, defined direction −) was “−” and the “Behavior of gene caused by administration of chemical substance, Gene No. 1163” value ([2]; (C), Unigene Rn.11766, defined direction +) was “−”. For the same compound, the “Behavior of gene caused by administration of chemical substance, Gene No. 4973” value ([2]; (C), Unigene Rn.118529, defined direction −) was “+”, the “Behavior of gene caused by administration of chemical substance, Gene No. 4095” value ([2]; (C), Unigene Rn.119024, defined direction −) was “+” and the “Behavior of gene caused by administration of chemical substance, Gene No. 1334” value [2, 4] was “−”. The “Behavior of gene caused by administration of chemical substance, Gene No. 6620” value [2, 4] was “−”, the “Behavior of gene caused by administration of chemical substance, Gene No. 6303” value ([2]; (C), Unigene Rn.123063, defined direction −) was “+” and the “Behavior of gene caused by administration of chemical substance, Gene No. 5878” value ([2]; (C), Unigene Rn.143213, defined direction −) was “−”. The “Behavior of gene caused by administration of chemical substance, Gene No. 1131” value ([2]; (C), Unigene Rn.144946, defined direction −) was “−”, the “Behavior of gene caused by administration of chemical substance, Gene No. 1562” value ([2]; (C), Unigene Rn.14744, defined direction −) was “+” and the “Behavior of gene caused by administration of chemical substance, Gene No. 1741” value ([2]; (C), Unigene Rn.1647, defined direction −) was “+”. For the same compound, the “Behavior of gene caused by administration of chemical substance, Gene No. 893” value ([2]; (C), Unigene Rn.164817, defined direction +) was “+”, the “Behavior of gene caused by administration of chemical substance, Gene No. 6026” value ([2]; (C), Unigene Rn.167685, defined direction −) was “+” and the “Behavior of gene caused by administration of chemical substance, Gene No. 154” value ([2]; (C), Unigene Rn.185941, defined direction −) was “+”. For the same compound, the “Behavior of gene caused by administration of chemical substance, Gene No. 1993” value ([2]; (C), Unigene Rn.18728, defined direction −) was “+”, the “Behavior of gene caused by administration of chemical substance, Gene No. 813” value ([2]; (C), Unigene Rn.201760, defined direction +) was “−” and the “Behavior of gene caused by administration of chemical substance, Gene No. 2494” value ([2]; (C), Unigene Rn.23969, defined direction +) was “+”. For the same compound, the “Behavior of gene caused by administration of chemical substance, Gene No. 2546” value ([2]; (C), Unigene Rn.24561, defined direction −) was “+”, the “Behavior of gene caused by administration of chemical substance, Gene No. 3776” value ([2]; (C), Unigene Rn.43232, defined direction −) was “−” and the “Behavior of gene caused by administration of chemical substance, Gene No. 3929” value ([2]; (C), Unigene Rn.4620, defined direction +) was “−”. The “Behavior of gene caused by administration of chemical substance, Gene No. 1119” value ([2]; (C), Unigene Rn.9757, defined direction +) was “−”, the “Behavior of gene caused by administration of chemical substance, Gene No. 6742” value ([2]; (C), Unigene Rn.9779, defined direction +) was “−” and the “Behavior of gene caused by administration of chemical substance, Gene No. 5634” value ([2]; (C), Unigene Rn.9862, defined direction −) was “−”. For the same compound, the “Behavior of gene caused by administration of chemical substance, Gene No. 5726” value ([2]; (D), Unigene Rn.9939, defined direction −) was “−” and the Liver carcinogenicity [3] was “Cr+”.
